From patent publication US20250145642A1, “BICYCLIC HETEROARENES AND METHODS OF THEIR USE” (Kineta, Inc., priority 2021, published 2025) come the findings set out here.

Assay [1] concerns the target full-length human PIKFYVE (N-terminal GST-fusion) (Homo sapiens (Human), UniProt Q9Y2I7, L932S/Q1183K/Q995L/S1033A/S696N/T998S). The assay can be described thus: PIKfyve biochemical assay (ADP-Glo Kinase assay, Carna Biosciences). Conditions: ADP-Glo, full-length human GST-PIKFYVE, 10 μM to 3 nM; read-out: hPIKfyve IC50. The procedure, abridged: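 Baculovirus-expressed, glutathione-purified GST-tagged full-length human PIKFYVE (S696N/L932S/Q995L/T998S/S1033A/Q1183K) reacted with substrate and ATP in 50 mM MOPS, 1 mM DTT, pH 7.2, 1 h at room temperature. ADP formed read by ADP-Glo luminescence.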

Assay [2] concerns the target PIKfyve (PIKFYVE-NanoLuc fusion in HEK293 cells) (Homo sapiens (Human), UniProt Q9Y2I7). The assay can be described thus: NanoBRET TE Intracellular Kinase Assay, K-8 (Promega) cell-based assay. The note with it: transfected HEK293 cells, 2 hours, read-out: hPIKfyve BRET IC50. The procedure: NanoBRET™ TE Intracellular Kinase Assay, K-8 (Promega) Cell-Based Assay. Intracellular inhibition of PIKfyve was assayed using Promega's NanoBRET™ TE Intracellular Kinase Assay, K-8 according to manufacturer's instructions. A dilution series of test compounds was added for 2 hours to HEK293 cells transfected for a minimum of 20 hours with PIKFYVE-NanoLuc® Fusion Vector (Promega) containing a full-length PIKfyve according to manufacturer's specifications in a 96-well plate. Kinase activity was detected by addition of a NanoBRET™ tracer reagent, which was a proprietary PIKfyve inhibitor appended to a fluorescent probe (BRET, bioluminescence resonance energy transfer). Test compounds were tested at concentrations of 10, 3, 1, 0.3, 0.1, 0.03, 0.01, 0.003 μM. BRET signals were measured by a GloMax®Discover Multimode Microplate Reader (Promega) using 0.3 sec/well integration time, 450 BP donor filter and 600 LP acceptor filters. Active test compounds that bound PIKfyve and displaced the tracer reduced BRET signal. IC50 values were then calculated by fitting the data to the normalized BRET ratio.
For orientation: In BRET a luciferase serves as donor, and the signal depends on an acceptor being close.

Chain of full-length human PIKFYVE (N-terminal GST-fusion) (Q9Y2I7 whole entry S696N/L932S/Q995L/T998S/S1033A/Q1183K, the tested form may be a part): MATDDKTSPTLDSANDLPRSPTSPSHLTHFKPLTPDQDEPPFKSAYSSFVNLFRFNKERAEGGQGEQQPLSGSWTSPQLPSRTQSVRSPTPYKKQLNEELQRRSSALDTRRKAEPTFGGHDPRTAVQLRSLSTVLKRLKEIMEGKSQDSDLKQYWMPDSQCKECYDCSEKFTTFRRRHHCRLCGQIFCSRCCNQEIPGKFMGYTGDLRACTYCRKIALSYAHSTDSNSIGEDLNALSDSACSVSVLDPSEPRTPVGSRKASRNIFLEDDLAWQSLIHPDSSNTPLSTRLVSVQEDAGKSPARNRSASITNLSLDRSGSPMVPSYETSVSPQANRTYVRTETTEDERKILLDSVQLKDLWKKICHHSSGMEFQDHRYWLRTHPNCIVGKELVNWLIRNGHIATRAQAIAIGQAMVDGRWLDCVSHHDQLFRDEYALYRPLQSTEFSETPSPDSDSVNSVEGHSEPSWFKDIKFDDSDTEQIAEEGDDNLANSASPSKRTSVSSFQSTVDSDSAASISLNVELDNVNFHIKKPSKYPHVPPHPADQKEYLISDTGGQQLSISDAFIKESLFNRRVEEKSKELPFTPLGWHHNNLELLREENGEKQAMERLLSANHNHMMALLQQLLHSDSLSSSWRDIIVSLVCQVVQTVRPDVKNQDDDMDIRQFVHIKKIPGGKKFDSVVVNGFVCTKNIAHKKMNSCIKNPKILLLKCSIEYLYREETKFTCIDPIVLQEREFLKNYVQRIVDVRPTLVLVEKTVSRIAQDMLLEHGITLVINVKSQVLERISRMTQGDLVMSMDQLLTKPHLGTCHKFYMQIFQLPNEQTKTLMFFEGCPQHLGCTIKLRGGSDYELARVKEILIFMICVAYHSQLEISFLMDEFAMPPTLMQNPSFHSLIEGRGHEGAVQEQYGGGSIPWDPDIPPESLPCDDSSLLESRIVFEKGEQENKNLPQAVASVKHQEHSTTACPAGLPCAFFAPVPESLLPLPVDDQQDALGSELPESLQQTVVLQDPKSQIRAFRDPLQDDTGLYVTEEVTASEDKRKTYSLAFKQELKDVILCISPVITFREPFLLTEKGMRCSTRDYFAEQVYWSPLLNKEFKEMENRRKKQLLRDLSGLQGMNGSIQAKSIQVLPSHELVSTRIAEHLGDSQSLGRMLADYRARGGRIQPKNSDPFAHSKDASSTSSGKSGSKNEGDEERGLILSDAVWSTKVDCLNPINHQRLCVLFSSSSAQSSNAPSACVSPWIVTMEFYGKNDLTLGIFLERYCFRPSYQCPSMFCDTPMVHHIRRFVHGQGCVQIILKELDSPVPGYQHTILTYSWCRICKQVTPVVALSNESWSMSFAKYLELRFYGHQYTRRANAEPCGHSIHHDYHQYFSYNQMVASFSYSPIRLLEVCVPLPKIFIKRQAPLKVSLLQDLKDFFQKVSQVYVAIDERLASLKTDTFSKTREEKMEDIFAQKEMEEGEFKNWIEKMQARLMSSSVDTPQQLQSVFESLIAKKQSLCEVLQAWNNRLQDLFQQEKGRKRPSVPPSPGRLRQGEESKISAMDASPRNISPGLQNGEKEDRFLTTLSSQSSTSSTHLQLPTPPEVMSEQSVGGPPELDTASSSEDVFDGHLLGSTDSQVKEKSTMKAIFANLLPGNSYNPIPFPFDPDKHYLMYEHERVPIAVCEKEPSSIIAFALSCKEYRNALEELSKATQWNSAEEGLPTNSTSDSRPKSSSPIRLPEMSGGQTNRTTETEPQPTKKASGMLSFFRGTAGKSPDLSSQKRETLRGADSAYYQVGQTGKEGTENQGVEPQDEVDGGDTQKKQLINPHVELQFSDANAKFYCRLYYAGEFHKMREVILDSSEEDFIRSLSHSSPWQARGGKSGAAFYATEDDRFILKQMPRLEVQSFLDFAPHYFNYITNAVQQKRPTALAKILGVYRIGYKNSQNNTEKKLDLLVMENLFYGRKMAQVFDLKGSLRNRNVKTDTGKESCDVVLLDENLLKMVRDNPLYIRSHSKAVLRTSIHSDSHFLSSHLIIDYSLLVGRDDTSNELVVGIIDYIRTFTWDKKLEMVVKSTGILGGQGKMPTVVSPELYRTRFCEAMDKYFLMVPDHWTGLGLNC
Chain of PIKfyve (PIKFYVE-NanoLuc fusion in HEK293 cells) (Q9Y2I7 whole entry, the tested form may be a part): as the sequence (Q9Y2I7 whole entry S696N/L932S/Q995L/T998S/S1033A/Q1183K, the tested form may be a part) above, with N696S, S932L, L995Q, S998T, A1033S, K1183Q counted along it

With `Clc1nc(N2CCOCC2)nc2c1CCN2c1ccccc1` [Compound 1, 4-(4-chloro-7-phenyl-6,7-dihydro-5H-pyrrolo[2,3-d]pyrimidin-2-yl)morpholine], the IC50 in assay [1] and in assay [2] was 100 to 1000 nM throughout.
Take `c1ccc(N2CCc3c(OC4CCOCC4)nc(N4CCOCC4)nc32)cc1` [Compound 21, 4-(7-phenyl-4-((tetrahydro-2H-pyran-4-yl)oxy)-6,7-dihydro-5H-pyrrolo[2,3-d]pyrimidin-2-yl)morpholine]: the IC50 in assay [1] and in assay [2] was 100 to 1000 nM throughout.
